One may read the IC50 as the point on the concentration scale where inhibition reaches its midpoint. Lower therefore signals higher potency.

This note sets out measurements from patent US20110275647A1, “PYRIMIDIN-4-(3H)-ONE DERIVATIVES” (MSD K.K., priority 2009, published 2011).

In this test the target is T1, human MGAT2 (Homo sapiens, UniProt Q3SYC2).
T1 construct: made in house; host or cells: Pichia pastoris (vector pPICZA), membrane fraction
Briefly: MGAT2 inhibitory activity test. Type of test: biochemical. Conditions: MGAT2-expressed yeast membrane fraction, [14C]-oleoyl-CoA, 37° C. for 30 minutes. On the procedure:
Human MGAT2 genes were amplified by PCR using primers described below from human cDNA library (Clontech).
The amplified human MGAT2 genes were introduced into a yeast expression vector pPICZA (Invitrogen). The resultant expression plasmid was introduced into an yeast (Pichia pastris) by electroporation to produce a recombinant yeast. The recombinant yeast was cultured in the presence of 0.5% methanol for 72 hours, and the cells were crushed using glass beads in 10 mM Tris pH 7.5, 250 mM sucrose and 1 mM EDTA, followed by adjusting the membrane fraction by centrifugation to use the adjusted membrane fraction as an enzyme source.
To the reaction solution, 100 μl of 2-propanol/heptan (80:20) was added, the mixture was stirred well, followed by addition of 200 μl of heptane and further stirring the mixture. After centrifugation, the heptane layer was collected, 80 μl of ethanol/0.1N NaOH/H2O (50:5:45) was added, the mixture was thus stirred, followed by recentrifuging the mixture and collecting the heptane layer. After exsiccation of the resultant heptane layer, 100 μl of Microscint 0 (PerkinElmer) was added, and the radioactivity was measured with a liquid scintillation counter. The inhibitory activity was calculated from the following formula:
Inhibition rate=100−(radioactivity in case of addition of test compound−background)/(radioactivity in case of addition of no test compound−background)×100
wherein the background means the radioactivity in case of addition of no membrane fraction.

T1 sequence (Q3SYC2 whole entry): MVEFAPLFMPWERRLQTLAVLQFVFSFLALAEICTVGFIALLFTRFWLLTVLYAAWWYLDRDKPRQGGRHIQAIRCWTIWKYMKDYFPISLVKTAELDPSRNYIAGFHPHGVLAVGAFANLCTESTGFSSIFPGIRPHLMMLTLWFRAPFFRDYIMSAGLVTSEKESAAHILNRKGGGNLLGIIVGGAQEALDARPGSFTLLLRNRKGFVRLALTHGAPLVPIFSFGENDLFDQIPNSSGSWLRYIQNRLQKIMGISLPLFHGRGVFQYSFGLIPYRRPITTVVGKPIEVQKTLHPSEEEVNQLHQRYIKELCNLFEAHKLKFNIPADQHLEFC

Take `O=c1c2c(nc(SCc3ccccc3)n1-c1ccccc1)CCN(c1nc3cc(F)c(F)cc3[nH]1)C2` [Example 1, 6-(5,6-difluoro-1H-benzimidazol-2-yl)-3-phenyl-2-[(phenylmethyl)thio]-5,6,7,8-tetrahydropyrido[4,3-d]pyrimidin-4(3H)-one]: 0.817 µM corresponded to half-maximal inhibition (IC50).

Compound `O=c1c2c(nc(SCc3ccccc3)n1-c1ccccc1)CCN(c1nc3cc(C(F)(F)F)ccc3[nH]1)C2` [Example 2, 6-(5-trifluoromethyl-1H-benzimidazol-2-yl)-3-phenyl-2-[(phenylmethyl)thio]-5,6,7,8-tetrahydropyrido[4,3-d]pyrimidin-4(3H)-one] returned an IC50 of 0.184 µM. The figure for `O=c1c2c(nc(SCc3cccnc3)n1-c1ccccc1)CCN(c1nc3cc(C(F)(F)F)ccc3[nH]1)C2` [Example 3, 3-phenyl-2-[(pyridin-3-ylmethyl)thio]-6-[5-(trifluoromethyl)-1H-benzimidazol-2-yl]-5,6,7,8-tetrahydropyrido[4,3-d]pyrimidin-4(3H)-one] is 0.056 µM; for `O=c1c2c(nc(SCc3ccnnc3)n1-c1ccccc1)CCN(c1nc3cc(C(F)(F)F)ccc3[nH]1)C2` [Example 4, 3-phenyl-2-[(pyridazin-4-ylmethyl)thio]-6-[5-(trifluoromethyl)-1H-benzimidazol-2-yl]-5,6,7,8-tetrahydropyrido[4,3-d]pyrimidin-4(3H)-one] it is 0.114 µM.
